Columns and labels:
[1] = test system: Salmonella typhimurium strain TA100; assay: Ames test (genotoxicity); format: cell-based
Method: (§1) Mutagenic potential of the compound of Formula I was assessed by Ames test in two Salmonella typhimurium strains TA98 and TA100 without and with metabolic activation (S9).
(§2) Effect of the compound inhibitors on genotoxicity was determined using the Salmonella typhimurium strains of TA 98 and TA 100 in the presence and absence of metabolic activation (S9). Each test concentration included the vehicle and positive controls. Briefly, the compounds were serially diluted in 24-well plates with or without the presence metabolic activation system (S9) and was incubated for 90 min at 37° C. in 250 rpm in a orbital shaking incubator. TA98 and TA100 were then introduced to the wells for 90 min. 50 μL aliquots from each well was dispensed into 384 well plates and incubated for 48 hrs at 37° C. in an incubator before positive wells were scored.

[2] = test system: Salmonella typhimurium strain TA98; assay: Ames test (genotoxicity); format: cell-based
Method: as §1, §2

ACA19 cells = details: human, 24 h, 100 uM
Method: (§3) The compounds of Formula I and Formula II cytotoxicity in human colon cancer SW620 (FIG. 8A), vascular HUVEC (FIG. 8B) and human melanoma ACA19 (FIG. 9C) cells was assessed in the absence or presence of various concentrations of the compounds of Formula I and Formula II (the chemotherapeutic drug Etoposide, Etop, was also included as positive control) by Lactate dehydrogenase (LDH) release assay.
as §3, with “(ACA19+) cells, which” for “ACA19 (FIG. 9C) cells”
(§4) SW620 and ACA19+ cells (5×10^4 cells/ml) were seeded into 96-well plate in DMEM and incubated at […] 5% CO2 for 24 hr. HUVECs (1.0×10^5 cells/ml) was seeded in EBM medium and incubated for 24-36 hr until they formed a monolayer. Compound inhibitors at different concentrations were then introduced to the cells (10× lysis buffer was included as maximum LDH activity control) for 24 hr. The culture medium was transferred to a new plate and was mixed with equal volume of reaction mixture provided in the kit for 30 min at room temperature before the absorbance was measured at 490 nm (reference 680 nm) by a spectrophotometer.

HUVEC cells = details: human, 24 h, 100 uM
Method: as §3
as §3, with “(ACA19+) cells, which” for “ACA19 (FIG. 9C) cells”
as §4

SW620 cells = details: human, 24 h, 100 uM
Method: as §3
as §3, with “(ACA19+) cells, which” for “ACA19 (FIG. 9C) cells”
as §4

Structure (SMILES): Nc1ccc2cc3ccccc3cc2c1 [Formula 2AA, reference compound]
- revertant colony count [1]: distinct increase
- revertant colony count [2]: distinct increase

Structure (SMILES): COc1cc([C@@H]2c3cc4c(cc3[C@@H](O[C@@H]3O[C@@H]5CO[C@@H](C)O[C@H]5[C@H](O)[C@H]3O)[C@H]3COC(=O)[C@H]23)OCO4)cc(OC)c1O [Etoposide]
- cytotoxicity (LDH release) (ACA19 cells): ~100%
- cytotoxicity (LDH release) (HUVEC cells): ~100%
- cytotoxicity (LDH release) (SW620 cells): ~100%
